Results as given in patent publication US8546575B2, “NIP thiazole derivatives as inhibitors of 11-beta-hydroxysteroid dehydroge-nase-1” (Merck Patent GmbH, priority 2008, dated 2013).

Legend:
human 11-β-HSD-1 = molecular target: T1, human 11-β-HSD-1 (Homo sapiens, UniProt P28845); assay: Inhibition of 11-β-HSD-1 enzyme assay (HTRF Cortisol), human recombinant enzyme; format: biochemical; details: for IC50: human recombinant enzyme from E. coli, cortisone/NADPH 200 nM/200 μM
T1 construct: made in house; host or cells: E. coli
T1 sequence (P28845 whole entry): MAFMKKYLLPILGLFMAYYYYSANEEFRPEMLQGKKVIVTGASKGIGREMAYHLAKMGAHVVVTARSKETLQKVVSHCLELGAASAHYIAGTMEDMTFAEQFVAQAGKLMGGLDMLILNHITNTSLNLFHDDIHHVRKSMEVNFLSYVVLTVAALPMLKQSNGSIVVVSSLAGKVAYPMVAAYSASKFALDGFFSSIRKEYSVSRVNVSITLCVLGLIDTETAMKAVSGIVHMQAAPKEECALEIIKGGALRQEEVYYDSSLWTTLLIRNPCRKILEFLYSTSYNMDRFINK
Method: (§1) Human recombinant 11-beta-hydroxysteroid dehydrogenase type 1 (11-β-HSD-1) enzyme was expressed in E. coli. Rat and mice liver microsome fractions were purchased from TEBU.
(§2) The 11-β-HSD-1 enzyme assay was carried out in 96 well microtiter plates in a total volume of 100 μl containing 30 mM Hepes buffer, pH 7.4 with 1 mM EDTA, substrate mixture cortisone/NADPH (200 nM/200 μM), G-6-P (1 mM) and inhibitors in serial dilutions. Reactions were initiated by addition of 10 μl 11-β-HSD-1 (3 μg) from E. coli, either as microsome fractions from rat and mice liver (2.5 μg). Following mixing, the plates were shaken for 150 minutes at 37° C. The reactions were terminated with 10 μl Acid-18beta Glycyrrhetinic stop solution. Determinations of Cortisol levels in 11-β-HSD-1 preparations were monitored by HTRF (HTRF Cortisol assay from Cis bio international).
(§3) Activity is expressed in % of control or concentration to inhibit 50% of the enzyme activity (IC50) (table 6).

mouse 11-β-HSD-1 = molecular target: T2, mouse 11-β-HSD-1 (Mus musculus, UniProt P50172); assay: Inhibition of 11-β-HSD-1 enzyme assay (HTRF Cortisol), mice liver microsome fractions; format: biochemical; details: for remaining activity at 1 µM: read-out: Inhibition of mouse 11-β-HSD-1 % of control at 1 μM
T2 construct: either as microsome fractions from rat and mice liver (2.5 μg); tissue TEBU; host or cells: mouse liver microsome fractions
T2 sequence (P50172 whole entry): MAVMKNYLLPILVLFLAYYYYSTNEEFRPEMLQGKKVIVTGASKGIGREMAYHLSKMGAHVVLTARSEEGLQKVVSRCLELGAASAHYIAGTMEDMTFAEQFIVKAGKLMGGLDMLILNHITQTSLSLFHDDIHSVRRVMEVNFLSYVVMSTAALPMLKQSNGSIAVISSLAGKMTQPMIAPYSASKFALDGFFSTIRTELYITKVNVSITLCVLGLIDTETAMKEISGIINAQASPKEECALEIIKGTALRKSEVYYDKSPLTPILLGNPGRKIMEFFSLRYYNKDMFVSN
Method: as §1, §2, §3

humans = details: cited from earlier work
normal patients = details: cited from earlier work

IC50 (human 11-β-HSD-1) [µM]	IC50 (mouse 11-β-HSD-1) [µM]	Compound	further results
1.2	0.29	O=C(c1csc(C2CCNCC2)n1)N(C1CCCCC1)C1CC1 [Compound 1.1, 2-Piperidin-4-yl-thiazole-4-carboxylic acid cyclohexyl-cyclopropyl-amide]	–
–	–	O=C(c1csc(C2CCNCC2)n1)N1CCCC2CCCCC21 (stereo not shown) [Compound 1.2, (Octahydro-quinolin-1-yl)-(2-piperidin-4-yl-thiazol-4-yl)-methanone]	remaining activity at 1 µM (human 11-β-HSD-1; at 1 μM, human recombinant enzyme, read-out: Inhibition of human 11-β-HSD-1 % of control at 1 μM): 27%
0.092	–	CC(C)(C)CC(=O)N1CCC(c2nc(C(=O)N3CCCC4CCCCC43)cs2)CC1 (stereo not shown) [Compound 2.1, 3,3-Dimethyl-1-{4-[4-(octahydro-quinoline-1-carbonyl)-thiazol-2-yl]-piperidin-1-yl}-butan-1-one]	remaining activity at 1 µM (mouse 11-β-HSD-1): 51%
0.42	0.63	O=C(CCC1CCCC1)N1CCC(c2nc(C(=O)N(C3CCCCC3)C3CC3)cs2)CC1 [Compound 2.7, 2-[1-(3-Cyclopentyl-propionyl)-piperidin-4-yl]-thiazole-4-carboxylic acid cyclohexyl-cyclopropyl-amide]	–
0.2	0.34	O=C(C1CCCCC1)N1CCC(c2nc(C(=O)N3CCCC4CCCCC43)cs2)CC1 (stereo not shown) [Compound 2.17, [2-(1-Cyclohexanecarbonyl-piperidin-4-yl)-thiazol-4-yl]-(octahydro-quinolin-1-yl)-methanone]	–
0.13	0.49	O=C(C1CCCC1)N1CCC(c2nc(C(=O)N3CCCC4CCCCC43)cs2)CC1 (stereo not shown) [Compound 2.18, [2-(1-Cyclopentanecarbonyl-piperidin-4-yl)-thiazol-4-yl]-(octahydro-quinolin-1-yl)-methanone]	–
0.27	0.47	CCC(C)NC(=O)N1CCC(c2nc(C(=O)N3CCCC4CCCCC43)cs2)CC1 (stereo not shown) [Compound 3.1, 4-[4-(Octahydro-quinoline-1-carbonyl)-thiazol-2-yl]-piperidine-1-carboxylic acid sec-butylamide]	–
0.34	0.059	CCCCCNC(=O)N1CCC(c2nc(C(=O)N3CCCC4CCCCC43)cs2)CC1 (stereo not shown) [Compound 3.7, 4-[4-(Octahydro-quinoline-1-carbonyl)-thiazol-2-yl]-piperidine-1-carboxylic acid pentylamide]	–
0.053	0.5	COc1ccc(CNC(=O)N2CCC(c3nc(C(=O)N4CCCC5CCCCC54)cs3)CC2)cc1 (stereo not shown) [Compound 3.22, 4-[4-(Octahydro-quinoline-1-carbonyl)-thiazol-2-yl]-piperidine-1-carboxylic acid 4-methoxy-benzylamide]	–
0.032	0.33	O=C(c1csc(C2CCN(S(=O)(=O)C(F)(F)F)CC2)n1)N1CCCC2CCCCC21 (stereo not shown) [Compound 4.1, (Octahydro-quinolin-1-yl)-[2-(1-trifluoromethanesulfonyl-piperidin-4-yl)-thiazol-4-yl]-methanone]	–
0.093	0.21	CCCCS(=O)(=O)N1CCC(c2nc(C(=O)N3CCCC4CCCCC43)cs2)CC1 (stereo not shown) [Compound 4.2, {2-[1-(Butane-1-sulfonyl)-piperidin-4-yl]-thiazol-4-yl}-(octahydro-quinolin-1-yl)-methanone]	–
0.72	–	O=C(c1csc(C2CCN(S(=O)(=O)c3cccs3)CC2)n1)N(C1CCCCC1)C1CC1 [Compound 4.11, 2-[1-(Thiophene-2-sulfonyl)-piperidin-4-yl]-thiazole-4-carboxylic acid cyclohexyl-cyclopropyl-amide]	–
1	–	O=C(c1csc(C2CCN(S(=O)(=O)CCc3ccncc3)CC2)n1)N(C1CCCCC1)C1CC1 [Compound 4.18, 2-[1-(2-Pyridin-4-yl-ethanesulfonyl)-piperidin-4-yl]-thiazole-4-carboxylic acid cyclohexyl-cyclopropyl-amide]	remaining activity at 1 µM (mouse 11-β-HSD-1): 49%
0.28	1	COc1ccc(S(=O)(=O)N2CCC(c3nc(C(=O)N(C4CCCCC4)C4CC4)cs3)CC2)cc1 [Compound 4.20, 2-[1-(4-Methoxy-benzenesulfonyl)-piperidin-4-yl]-thiazole-4-carboxylic acid cyclohexyl-cyclopropyl-amide]	–
–	–	CC1(C)[C@@H](OC(=O)CCC(=O)O)CC[C@]2(C)[C@H]3C(=O)C=C4[C@@H]5C[C@@](C)(C(=O)O)CC[C@]5(C)CC[C@@]4(C)[C@]3(C)CC[C@@H]12 [carbenoxolone]	hepatic insulin sensitivity (humans): improved hepatic insulin sensitivity; reduction of the intraocular pressure (normal patients): 20%
